Measurements reported in PMC12466479, “The Supersulfide-Producing Activity of Rat Cystathionine γ-Lyase Is Irreversibly Inactivated by L-CysNO but Not by L-GSNO” (Antioxidants, 2025).
Blank lines part the entries; values can stand above or below the compound they belong to.

Key:
[1] = molecular target: T1, Cystathionine γ-lyase (CSE) (Rattus norvegicus, UniProt P18757); assay: SSP4 fluorescence assay of Cys-SSH production from cystine after preincubation with L-CysNO; also a substrate (HSNO by TAP-1, pyruvate assay); type: biochemical; design: gene Cth; recombinant rat CSE expressed in E. coli as GST-CSE, GST tag cleaved
T1 sequence (P18757 whole entry): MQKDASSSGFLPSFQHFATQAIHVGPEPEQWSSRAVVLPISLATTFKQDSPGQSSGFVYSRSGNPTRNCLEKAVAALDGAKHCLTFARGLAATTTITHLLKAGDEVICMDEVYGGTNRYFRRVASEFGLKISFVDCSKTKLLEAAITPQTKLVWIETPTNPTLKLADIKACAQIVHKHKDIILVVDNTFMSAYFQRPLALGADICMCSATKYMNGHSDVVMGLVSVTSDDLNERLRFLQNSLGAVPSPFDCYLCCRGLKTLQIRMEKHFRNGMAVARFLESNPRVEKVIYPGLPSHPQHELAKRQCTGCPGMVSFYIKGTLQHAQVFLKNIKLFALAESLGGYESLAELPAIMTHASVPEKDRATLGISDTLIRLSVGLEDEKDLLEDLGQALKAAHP

[2] = molecular target: T1, Cystathionine γ-lyase (CSE); assay: TAP-1 assay of HSNO production from L-CysNO with or without […] PLP; type: biochemical; design: gene Cth; recombinant rat CSE, purified from E. coli
[3] = molecular target: T1, Cystathionine γ-lyase (CSE); design: gene Cth
[4] = molecular target: T1, Cystathionine γ-lyase (CSE); design: gene Cth; remark: listed apart in the source

- IC50 [1]: 10 µM
SMILES: N[C@@H](CSN=O)C(=O)O [L-CysNO, L-S-nitrosocysteine]

SMILES: Cc1ncc(COP(=O)(O)O)c(C=O)c1O [PLP, pyridoxal 5′-phosphate]
- TAP-1 assay of HSNO production from L-CysNO with or without 50 μM PLP [2]: The PLP-dependent β-lyase activity of CSE toward L-CysNO—but not D-CysNO—in producing HSNO was evident

SMILES: N[C@@H](CCSC[C@H](N)C(=O)O)C(=O)O [cystathionine]
- DTNB assay of cysteine formed from 1 mM cystathionine (γ-lyase activity) [3]: The cysteine produced by CSE from cystathionine was measured by DTNB assay

SMILES: N[C@@H](CSSC[C@H](N)C(=O)O)C(=O)O [cystine]
- SSP4 fluorescence assay of Cys-SSH formed from 1 mM cystine (β-lyase activity) [4]: The Cys-SSH produced by CSE with cystine as the substrate was measured by using SSP4
